Assay results as given in article PMC12030627, “Radioiodinated Bicyclic RGD Peptide Derivatives for Enhanced Tumor Accumulation” (Pharmaceuticals, 2025).
Starred links: 1 amine or outer side, 2 acyl side, 3 side chain; linkers in the order of their positions; H or OH if unused. Positions of bridges follow the written chain, without caps; N, C: chain ends. Non-standard residues stand in square brackets, D forms with d. Residues, ends and D or L forms follow the SMILES beside them. *: point of attachment. Butanoyl(4-(4-I-phenyl)) = O=C(CCCc1ccc(I)cc1)*; TBMB = c1c(C[*:1])cc(C[*:3])cc1C[*:2]; Palmitoyl = CCCCCCCCCCCCCCCC(=O)*; Benzoyl(3-I) = O=C(c1cccc(I)c1)*; 4Abz = Nc1ccc(C(=O)O)cc1

Test system: U-87 MG-bearing mice
Test: Biodistribution in U-87 MG tumor-bearing mice
Format: in vivo, BALB/c nu-nu mice
Conditions: U-87 MG-bearing mice, mean ± SD, n = 3
Protocol: Animal experiments were performed in compliance with institutional animal care regulations, with the study protocol approved by the Experimental Animal Committee of Osaka Medical and Pharmaceutical University (Approval Numbers: 21–76, 22–76, and 23–76). Four-week-old male BALB/c nu-nu mice (Japan SLC, Shizuoka, Japan) were housed under a 12 h light/12 h dark cycle with free access to food and water. Tumor-bearing mice were established by suspending U-87 MG cells (2 × 10^6 cells/mouse) in PBS(–) and subcutaneously injecting 100 μL of the suspension into the right hind leg. For co-implantation models, A549 cells (2 × 10^6 cells/mouse) were suspended in PBS(–) and inoculated (100 μL) into the left hind leg of the same mice already inoculated with U-87 MG cells. Mice with tumor size approximately 10 mm in diameter, 4–5 weeks after inoculation, were used for biodistribution studies. Animals in which either tumor was not viable were excluded from the experiment.
U-87 MG-bearing mice (n = 42, 8–9 weeks old; 22–27 g) were randomly assigned into groups and administered [^125I]bcRGDpal or [^125I]bcRGDiba via intravenous injection (37 kBq in 100 μL of PBS containing 0.1% Tween 80 (PBS-T80)). At 5 min, 30 min, 1 h, 2 h, 6 h, 12 h, or 24 h post-injection, the mice were euthanized (n = 3 per time point). The heart, kidneys, liver, brain, pancreas, spleen, lung, small intestine, large intestine, muscle, skin, stomach, bone, and tumors were excised. Each organ’s weight and radioactivity were measured by a NaI well-type scintillation counter, and the % ID/g was calculated. To investigate the correlation between integrin expression and radioactivity accumulation, biodistribution at 2 h after administration of [^125I]bcRGDpal or [^125I]bcRGDiba was assessed in A549 and U-87 MG co-implantation mice (n = 5) using the same procedure. Additionally, co-implantation mice were injected with [^125I]bcRGDdimer (37 kBq/100 μL PBS-T80) and euthanized at 30 min, 2 h, and 4 h post-injection (n = 4 per time point), and % ID/g values were calculated as described above. The minimum sample size needed for the biodistribution study in U-87 MG-bearing mice was calculated using G Power software version 3.1.9.7. The calculation was based on a two-tailed test, with an effect size of 3.9, a significance level (α) of 0.05, and a statistical power (1 − β) of 0.8. […] The minimum required sample size for the biodistribution study in A549 and U-87 MG co-implantation mice was also calculated to be four animals per group (effect size = 2.5, α = 0.05, 1 − β = 0.8). To guarantee objective results, the experiment was carried out in a blinded manner. Specifically, drug administration and radioactivity measurements were conducted by different investigators to eliminate potential bias.

[1] = 5 min after i.v. administration
[2] = 30 min after i.v. administration

Compound | U87/Blood radioactivity ratio [1] | U87/Muscle radioactivity ratio [1] | U87/Blood radioactivity ratio [2] | U87/Muscle radioactivity ratio [2] | U87/Blood radioactivity ratio (1 h after i.v. administration) | U87/Muscle radioactivity ratio (1 h after i.v. administration) | U87/Blood radioactivity ratio (2 h after i.v. administration) | U87/Muscle radioactivity ratio (2 h after i.v. administration) | U87/Blood radioactivity ratio (6 h after i.v. administration) | U87/Muscle radioactivity ratio (6 h after i.v. administration) | Radioactivity in thyroid (12 h after i.v. administration) [% injected dose] | U87/Blood radioactivity ratio (12 h after i.v. administration) | U87/Muscle radioactivity ratio (12 h after i.v. administration) | Radioactivity in U-87 MG tumor (24 h after i.v. administration) [% ID/g] | Radioactivity in brain (24 h after i.v. administration) | Radioactivity in thyroid (24 h after i.v. administration) [% injected dose] | U87/Blood radioactivity ratio (24 h after i.v. administration) | U87/Muscle radioactivity ratio (24 h after i.v. administration)
N=C(N)NCCC[C@@H]1NC(=O)[C@H]2CSCc3cc(cc(c3)CSC[C@H](C(N)=O)NC(=O)[C@H](CC(=O)O)NC(=O)CNC1=O)CSC[C@H](NC(=O)CNC(=O)[C@H](CO)NC(=O)c1ccc(NC(=O)CNC(=O)[C@H](CO)NC(=O)[C@@H]3CCCN3C(=O)[C@@H]3CCCN3C(=O)[C@@H]3CCCN3C(=O)[C@H](CCCCNC(=O)c3cccc(I)c3)NC(=O)CCCc3ccc(I)cc3)cc1)C(=O)N[C@@H](Cc1c[nH]cn1)C(=O)N1CCC[C@H]1C(=O)N[C@@H](CCC(N)=O)C(=O)N2 [[^125I]bcRGDiba] ({Butanoyl(4-(4-I-phenyl))}-K(Benzoyl(3-I))PPPSG[4Abz]SGCHPQ[dC]RGD[dC]-NH2; linker 10-14-18 via TBMB) | 0.1 ± 0.0 | 1.6 ± 0.3 | 0.2 ± 0.0 | 2.3 ± 0.6 | 0.2 ± 0.0 | 2.3 ± 0.4 | 0.3 ± 0.0 | 2.4 ± 0.3 | 0.3 ± 0.0 | 2.5 ± 0.3 | 0.0 ± 0.0 | 0.4 ± 0.1 | 2.6 ± 0.3 | 0.5 | 0.0 ± 0.0 % injected dose per gram of tissue | 0.0 ± 0.0 | 0.4 ± 0.1 | 2.1 ± 0.4
CCCCCCCCCCCCCCCC(=O)N[C@@H](CCCCNC(=O)c1cccc(I)c1)C(=O)N1CCC[C@H]1C(=O)N1CCC[C@H]1C(=O)N1CCC[C@H]1C(=O)N[C@@H](CO)C(=O)NCC(=O)Nc1ccc(C(=O)N[C@@H](CO)C(=O)NCC(=O)N[C@H]2CSCc3cc4cc(c3)CSC[C@@H](NC(=O)[C@H](CCC(N)=O)NC(=O)[C@@H]3CCCN3C(=O)[C@H](Cc3c[nH]cn3)NC2=O)C(=O)N[C@@H](CCCNC(=N)N)C(=O)NCC(=O)N[C@@H](CC(=O)O)C(=O)N[C@@H](C(N)=O)CSC4)cc1 [[^125I]bcRGDpal] (Palmitoyl-K(Benzoyl(3-I))PPPSG[4Abz]SGCHPQ[dC]RGD[dC]-NH2; linker 10-14-18 via TBMB) | 0.1 ± 0.0 | – | 0.3 ± 0.0 | 2.1 ± 0.3 | 0.4 ± 0.1 | 2.9 ± 0.2 | 0.5 ± 0.0 | 3.7 ± 0.4 | 0.5 ± 0.1 | 3.3 ± 0.8 | 0.0 ± 0.0 | 0.4 ± 0.0 | 3.4 ± 0.5 | 0.3 | 0.0 ± 0.0 % injected dose per gram of tissue | 0.0 ± 0.0 | 0.5 ± 0.1 | 2.4 ± 0.4
